Measured values published in US20160237059A1, “HETEROCYCLIC SUBSTITUTED TRIFLUOROMETHYL PYRIMIDINONES AND THEIR USE” (BAYER PHARMA AKTIENGESELLSCHAFT, priority 2013, published 2016).

Key:
Assay type in all cases: cell-based
human CCR2 = target: T1, human CCR2 (Homo sapiens, UniProt P41597); experiment: Functional Ca2+ release test (B-1); conditions: Chem-1 cell line transfected with human CCR2; 50% inhibition of the MCP-1 effect, MCP-1 at EC50 (about 5 nM); in some cases means of several determinations
T1 construct: host or cells: Chem-1 cell line
T1 sequence (P41597 1-360 isoform P41597-2): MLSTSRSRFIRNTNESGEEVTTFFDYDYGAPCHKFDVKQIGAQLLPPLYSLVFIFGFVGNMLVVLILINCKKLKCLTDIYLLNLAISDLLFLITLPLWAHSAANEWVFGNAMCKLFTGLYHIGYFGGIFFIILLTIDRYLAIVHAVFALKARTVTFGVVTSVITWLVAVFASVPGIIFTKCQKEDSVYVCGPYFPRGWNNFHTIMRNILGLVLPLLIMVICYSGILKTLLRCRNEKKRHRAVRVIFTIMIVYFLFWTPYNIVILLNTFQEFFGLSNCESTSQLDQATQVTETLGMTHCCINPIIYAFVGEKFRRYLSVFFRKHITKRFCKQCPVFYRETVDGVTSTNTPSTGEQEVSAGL
Summary of the method: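 Chem-1 cells expressing human CCR2, loaded with Fluo-4 for 60 min at 37° C, were preincubated 10 min with compound (10-point, 1:3.16 dilutions), then stimulated with MCP-1 at its predetermined EC50 (about 5 nM). Ca2+ release was monitored for 120 s. IC50 came from a 4-parameter Hill fit.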

murine CCR2 [1] = target: T2, murine CCR2 (Mus musculus, UniProt P51683); experiment: Functional β-arrestin recruiting test with human MCP-1 (B-2a); conditions: U2OS β-arrestin cell line transfected with murine CCR2; agonist human MCP-1 at EC50 (about 3 nM); in some cases means of several determinations
T2 construct: host or cells: U2OS β-arrestin cell line
T2 sequence (P51683 whole entry): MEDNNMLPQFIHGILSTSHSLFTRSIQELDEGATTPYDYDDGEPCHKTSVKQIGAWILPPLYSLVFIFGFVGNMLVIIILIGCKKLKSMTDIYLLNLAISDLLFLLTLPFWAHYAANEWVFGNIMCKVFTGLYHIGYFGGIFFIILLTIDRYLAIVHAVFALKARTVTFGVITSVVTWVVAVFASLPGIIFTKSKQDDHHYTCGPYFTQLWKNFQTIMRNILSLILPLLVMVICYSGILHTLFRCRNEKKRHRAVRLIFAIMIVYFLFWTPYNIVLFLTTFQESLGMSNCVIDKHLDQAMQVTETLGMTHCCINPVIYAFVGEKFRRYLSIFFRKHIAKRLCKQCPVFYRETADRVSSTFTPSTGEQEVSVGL
Summary of the method: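 Antagonist mode in U2OS cells expressing murine CCR2, read by PathHunter β-galactosidase complementation luminescence. Cells pre-incubated 10 min with 10-point compound dilutions (1:3.16 steps), then stimulated with human MCP-1 at its EC50 (usually about 3 nM) for 90 min at 37° C.; IC50 from 4-parameter logistic fit.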

murine CCR2 [2] = target: T2, murine CCR2; experiment: Functional β-arrestin recruiting test with murine MCP-1 (B-2b); conditions: U2OS β-arrestin cell line transfected with murine CCR2; agonist murine MCP-1; in some cases means of several determinations
Summary of the method: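 In a PathHunter β-galactosidase complementation assay, U2OS cells expressing murine CCR2 were preincubated 10 min with compound (10-point, 1:3.16 dilutions), then challenged with murine MCP-1 at its predetermined EC50 for 90 min at 37 °C. Luminescence was read after 60 min, and IC50 was fitted with a 4-parameter Hill function.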

In the case of `O=c1[nH]c(-c2n[nH]cc2Cl)nc(C(F)(F)F)c1Cc1ccc(Cl)c(Cl)c1` [Example 75, 2-(4-chloro-1H-pyrazol-3-yl)-5-(3,4-dichlorobenzyl)-6-(trifluoromethyl)pyrimidin-4(3H)-one], the IC50 (human CCR2) is reported as 1.3 nM, the IC50 (murine CCR2 [1]) is reported as 29 nM and the IC50 (murine CCR2 [2]) is reported as 102 nM.

With `O=c1[nH]c(-c2cn[nH]c2)nc(C(F)(F)F)c1Oc1ccc(Cl)c(C(F)(F)F)c1` [Example 70, 5-[4-chloro-3-(trifluoromethyl)phenoxy]-2-(1H-pyrazol-4-yl)-6-(trifluoromethyl)pyrimidin-4(3H)-one] the IC50 (human CCR2) was 0.8 nM, the IC50 (murine CCR2 [1]) was 56 nM and the IC50 (murine CCR2 [2]) was 154 nM.

In the case of `O=c1[nH]c(-c2ncccc2Cl)nc(C(F)(F)F)c1Oc1ccc(Cl)c(Cl)c1` [Example 5, 2-(3-chloropyridin-2-yl)-5-(3,4-dichlorophenoxy)-6-(trifluoromethyl)pyrimidin-4(3H)-one], the IC50 (human CCR2) is reported as 1 nM, the IC50 (murine CCR2 [1]) is reported as 13 nM and the IC50 (murine CCR2 [2]) is reported as 50 nM.

`COc1ncccc1-c1nc(C(F)(F)F)c(Oc2ccc(Cl)c(Cl)c2)c(=O)[nH]1` [Example 42] gave an IC50 (human CCR2) of 1.5 nM, an IC50 (murine CCR2 [1]) of 44 nM and an IC50 (murine CCR2 [2]) of 812 nM.

In the case of `O=c1[nH]c(-c2ncccc2Cl)nc(C(F)(F)F)c1Oc1ccc(Cl)c(F)c1` [Example 11, 5-(4-chloro-3-fluorophenoxy)-2-(3-chloropyridin-2-yl)-6-(trifluoromethyl)pyrimidin-4(3H)-one], the IC50 (human CCR2) is reported as 4.3 nM, the IC50 (murine CCR2 [1]) is reported as 28 nM and the IC50 (murine CCR2 [2]) is reported as 194 nM.

In the case of `Nc1ccc(-c2nc(C(F)(F)F)c(Oc3ccc(Cl)c(C(F)(F)F)c3)c(=O)[nH]2)nc1` [Example 113, 2-(5-Aminopyridin-2-yl)-5-[4-chloro-3-(trifluoromethyl)phenoxy]-6-(trifluoromethyl)pyrimidin-4(3H)-one], the IC50 (human CCR2) is reported as 0.4 nM, the IC50 (murine CCR2 [1]) is reported as 8.3 nM and the IC50 (murine CCR2 [2]) is reported as 16 nM.

With `Cc1nc(-c2nc(C(F)(F)F)c(Oc3ccc(Cl)c(Cl)c3)c(=O)[nH]2)no1` [Example 83] the IC50 (human CCR2) was 20 nM, the IC50 (murine CCR2 [1]) was 79 nM and the IC50 (murine CCR2 [2]) was 308 nM.

In the case of `O=c1[nH]c(-c2cc[nH]n2)nc(C(F)(F)F)c1Oc1ccc(Cl)c(Cl)c1` [Example 49, 5-(3,4-Dichlorophenoxy)-2-(1H-pyrazol-3-yl)-6-(trifluoromethyl)pyrimidin-4(3H)-one], the IC50 (human CCR2) is reported as 0.6 nM, the IC50 (murine CCR2 [1]) is reported as 2.5 nM and the IC50 (murine CCR2 [2]) is reported as 12 nM.

`O=c1[nH]c(-c2ncccc2Cl)nc(C(F)(F)F)c1Oc1ccc(Cl)c(C(F)(F)F)c1` [Example 38, 2-(3-chloropyridin-2-yl)-5-[4-chloro-3-(trifluoromethyl)phenoxy]-6-(trifluoromethyl)pyrimidin-4(3H)-one] showed an IC50 (human CCR2) of 0.3 nM, an IC50 (murine CCR2 [1]) of 5.1 nM and an IC50 (murine CCR2 [2]) of 8.9 nM.

`O=c1[nH]c(-c2ncon2)nc(C(F)(F)F)c1Oc1ccc(Cl)c(Cl)c1` [compound 79, 5-(3,4-Dichlorophenoxy)-2-(1,2,4-oxadiazol-3-yl)-6-(trifluoromethyl)pyrimidin-4(3H)-one] gave an IC50 (human CCR2) of 4.2 nM, an IC50 (murine CCR2 [1]) of 53 nM and an IC50 (murine CCR2 [2]) of 195 nM.

With `O=c1[nH]c(-c2ncc(F)cc2F)nc(C(F)(F)F)c1Oc1ccc(Cl)c(Cl)c1` [Example 4, 5-(3,4-dichlorophenoxy)-2-(3,5-difluoropyridin-2-yl)-6-(trifluoromethyl)pyrimidin-4(3H)-one] the IC50 (human CCR2) was 2.9 nM, the IC50 (murine CCR2 [1]) was 87 nM and the IC50 (murine CCR2 [2]) was 380 nM.

`Nc1cnn(-c2nc(C(F)(F)F)c(Oc3ccc(Cl)c(C(F)(F)F)c3)c(=O)[nH]2)c1` [Example 108, 2-(4-amino-1H-pyrazol-1-yl)-5-[4-chloro-3-(trifluoromethyl)phenoxy]-6-(trifluoromethyl)pyrimidin-4(3H)-one] was tested, and the IC50 (human CCR2) was 0.8 nM, the IC50 (murine CCR2 [1]) was 2.7 nM and the IC50 (murine CCR2 [2]) was 27 nM.

For `COc1ncccc1-c1nc(C(F)(F)F)c(Oc2ccc(Cl)c(C(F)(F)F)c2)c(=O)[nH]1` [Example 37, 5-[4-chloro-3-(trifluoromethyl)phenoxy]-2-(2-methoxypyridin-3-yl)-6-(trifluoromethyl)pyrimidin-4(3H)-one], the IC50 (human CCR2) was 0.9 nM, the IC50 (murine CCR2 [1]) was 40 nM and the IC50 (murine CCR2 [2]) was 122 nM.

Molecule `Nc1cccc(-c2nc(C(F)(F)F)c(Oc3ccc(Cl)c(C(F)(F)F)c3)c(=O)[nH]2)n1` [Example 44, 2-(6-aminopyridin-2-yl)-5-[4-chloro-3-(trifluoromethyl)phenoxy]-6-(trifluoromethyl)pyrimidin-4(3H)-one] has an IC50 (human CCR2) of 2.2 nM, an IC50 (murine CCR2 [1]) of 74 nM and an IC50 (murine CCR2 [2]) of 222 nM.

In the case of `O=c1[nH]c(-c2ccccn2)nc(C(F)(F)F)c1Oc1ccc(Cl)c(Cl)c1` [Example 3, 5-(3,4-dichlorophenoxy)-2-(pyridin-2-yl)-6-(trifluoromethyl)pyrimidin-4(3H)-one], the IC50 (human CCR2) is reported as 1.2 nM, the IC50 (murine CCR2 [1]) is reported as 31 nM and the IC50 (murine CCR2 [2]) is reported as 205 nM.

“5-(3,4-dichlorobenzyl-2-(3-methoxypyridin-2-yl)-6-(trifluoromethyl)pyrimidin-4(3H)-one [Example 23]” gave an IC50 (human CCR2) of 0.4 nM, an IC50 (murine CCR2 [1]) of 25 nM and an IC50 (murine CCR2 [2]) of 135 nM.

Molecule `O=c1[nH]c(-c2cc[nH]n2)nc(C(F)(F)F)c1Oc1ccc(Cl)c(C(F)(F)F)c1` [Example 65, 5-[4-chloro-3-(trifluoromethyl)phenoxy]-2-(1H-pyrazol-3-yl)-6-(trifluoromethyl)pyrimidin-4(3H)-one] has an IC50 (human CCR2) of 0.3 nM, an IC50 (murine CCR2 [1]) of 1.8 nM and an IC50 (murine CCR2 [2]) of 4.8 nM.

For `O=c1[nH]c(-n2cccn2)nc(C(F)(F)F)c1Oc1ccc(Cl)c(C(F)(F)F)c1` [Example 73, 5-[4-chloro-3-(trifluoromethyl)phenoxy]-2-(1H-pyrazol-1-yl)-6-(trifluoromethyl)pyrimidin-4(3H)-one], the IC50 (human CCR2) was 0.4 nM, the IC50 (murine CCR2 [1]) was 12 nM and the IC50 (murine CCR2 [2]) was 37 nM.

Work on `COc1cccnc1-c1nc(C(F)(F)F)c(Oc2ccc(Cl)c(C(F)(F)F)c2)c(=O)[nH]1` [Example 40, 5-[4-chloro-3-(trifluoromethyl)phenoxy]-2-(3-methoxypyridin-2-yl)-6-(trifluoromethyl)pyrimidin-4(3H)-one] yielded an IC50 (human CCR2) of 0.8 nM, an IC50 (murine CCR2 [1]) of 12 nM and an IC50 (murine CCR2 [2]) of 44 nM.

With `Cn1cnc(-c2nc(C(F)(F)F)c(Cc3ccc(Cl)c(Cl)c3)c(=O)[nH]2)c1` [Example 52, 5-(3,4-dichlorobenzyl)-2-(1-methyl-1H-imidazol-4-yl)-6-(trifluoromethyl)pyrimidin-4(3H)-one] the IC50 (human CCR2) was 1.3 nM, the IC50 (murine CCR2 [1]) was 85 nM and the IC50 (murine CCR2 [2]) was 439 nM.

Molecule `O=c1[nH]c(-c2ccccn2)nc(C(F)(F)F)c1Oc1ccc(F)c(Cl)c1` [Example 2, 5-(3-chloro-4-fluorophenoxy)-2-(pyridin-2-yl)-6-(trifluoromethyl)pyrimidin-4(3H)-one] has an IC50 (human CCR2) of 4.5 nM, an IC50 (murine CCR2 [1]) of 88 nM and an IC50 (murine CCR2 [2]) of 1040 nM.

`Nc1cnn(-c2nc(C(F)(F)F)c(Cc3ccc(Cl)c(C(F)(F)F)c3)c(=O)[nH]2)c1` [Example 107, 2-(4-Amino-1H-pyrazol-1-yl)-5-[4-chloro-3-(trifluoromethyl)benzyl]-6-(trifluoromethyl)pyrimidin-4(3H)-one] showed an IC50 (human CCR2) of 2.4 nM, an IC50 (murine CCR2 [1]) of 28 nM and an IC50 (murine CCR2 [2]) of 53 nM.

In the case of `Nc1ccnc(-c2nc(C(F)(F)F)c(Oc3ccc(Cl)c(C(F)(F)F)c3)c(=O)[nH]2)c1` [Example 45, 2-(4-aminopyridin-2-yl)-5-[4-chloro-3-(trifluoromethyl)phenoxy]-6-(trifluoromethyl)pyrimidin-4(3H)-one], the IC50 (human CCR2) is reported as 4.7 nM, the IC50 (murine CCR2 [1]) is reported as 86 nM and the IC50 (murine CCR2 [2]) is reported as 553 nM.

For `Cn1ncc(-c2nc(C(F)(F)F)c(Oc3ccc(Cl)c(C(F)(F)F)c3)c(=O)[nH]2)c1N` [Example 67, 2-(5-amino-1-methyl-1H-pyrazol-4-yl)-5-[4-chloro-3-(trifluoromethyl)phenoxy]-6-(trifluoromethyl)pyrimidin-4(3H)-one], the IC50 (human CCR2) was 8.3 nM and the IC50 (murine CCR2 [1]) was 150 nM.

`O=c1[nH]c(Cc2cccs2)nc(C(F)(F)F)c1Cc1ccc(Cl)c(Cl)c1` [Example 172] was tested, and the IC50 (human CCR2) was 62 nM and the IC50 (murine CCR2 [1]) was 140 nM.

`O=c1[nH]c(-c2noc(C3CC3)n2)nc(C(F)(F)F)c1Oc1ccc(Cl)c(Cl)c1` [Example 82, 2-(5-cyclopropyl-1,2,4-oxadiazol-3-yl)-5-(3,4-dichlorophenoxy)-6-(trifluoromethyl)pyrimidin-4(3H)-one x N,N-diisopropylethylamine] showed an IC50 (human CCR2) of 19 nM and an IC50 (murine CCR2 [1]) of 150 nM.

Molecule `Nc1nc[nH]c1-c1nc(C(F)(F)F)c(Oc2ccc(Cl)c(Cl)c2)c(=O)[nH]1` [Example 64, 2-(4-amino-1H-imidazol-5-yl)-5-(3,4-dichlorophenoxy)-6-(trifluoromethyl)pyrimidin-4(3H)-one] has an IC50 (human CCR2) of 320 nM and an IC50 (murine CCR2 [1]) of 6500 nM.

In the case of `O=c1[nH]c(-c2cc(O)ccn2)nc(C(F)(F)F)c1Oc1ccc(Cl)c(Cl)c1` [Example 32, 5-(3,4-dichlorophenoxy)-2-(4-hydroxypyridin-2-yl)-6-(trifluoromethyl)pyrimidin-4(3H)-one], the IC50 (human CCR2) is reported as 51 nM and the IC50 (murine CCR2 [1]) is reported as 1100 nM.
